# What was measured:
# Assay type in all cases: in vivo
# Solanum nigrum (SOLNI) [1] = assay: Post-emergence biological efficacy, glasshouse pot test; details: evaluated after 13 days, 100=total damage, 0=no damage, read-out: Percentage damage caused to weed species, post-emergence, SOLNI; for pest or weed control at 1000 g/ha: 312 h, 1,000 g/ha
# Procedure, shortened: (§1)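 Visual damage ratings (100 total kill, 0 no effect) were taken 13 days after spraying. Plants had been grown 8 days from seed before a single application of 1000 or 250 g/ha in aqueous acetone (50:50) containing 0.5% Tween 20.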
# [2] = tested on: Ipomea hederaceae (IPOHE); assay: as above; details: Ipomoea hederacea, evaluated after 13 days, 100=total damage, 0=no damage, read-out: Percentage damage caused to weed species, post-emergence, IPOHE; for pest or weed control at 1000 g/ha: 312 h, 1,000 g/ha
# Procedure, shortened: as §1
# Setaria faberi (SETFA) [3] = assay: as above; details: evaluated after 13 days, 100=total damage, 0=no damage, read-out: Percentage damage caused to weed species, post-emergence, SETFA; for pest or weed control at 1000 g/ha: 312 h, 1,000 g/ha
# Procedure, shortened: as §1
# [4] = tested on: Alopecurus myosuroides (ALOMY); assay: as above; details: evaluated after 13 days, 100=total damage, 0=no damage, read-out: Percentage damage caused to weed species, post-emergence, ALOMY; for pest or weed control at 1000 g/ha: 312 h, 1,000 g/ha
# Procedure, shortened: as §1
# [5] = tested on: Amaranthus retroflexus (AMARE); assay: as above; details: evaluated after 13 days, 100=total damage, 0=no damage, read-out: Percentage damage caused to weed species, post-emergence, AMARE; for pest or weed control at 1000 g/ha: 312 h, 1,000 g/ha
# Procedure, shortened: as §1
# [6] = tested on: Echinochloa crus-galli (ECHCG); assay: as above; details: evaluated after 13 days, 100=total damage, 0=no damage, read-out: Percentage damage caused to weed species, post-emergence, ECHCG; for pest or weed control at 1000 g/ha: 312 h, 1,000 g/ha
# Procedure, shortened: as §1
# Solanum nigrum (SOLNI) [7] = assay: Pre-emergence biological efficacy, glasshouse pot test; details: evaluated after 13 days, 100=total damage, 0=no damage, read-out: Percentage damage caused to weed species, pre-emergence, SOLNI; for pest or weed control at 1000 g/ha: 312 h, 1,000 g/ha
# Procedure, shortened: (§2)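 Damage ratings (0 no damage to 100 total damage) were taken 13 days after treatment. Compound had been applied at 1000 or 250 g/ha as an aqueous spray from acetone/water (50:50) with 0.5% Tween 20, one day after sowing in soil.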
# [8] = tested on: Ipomea hederaceae (IPOHE); assay: as above; details: Ipomoea hederacea, evaluated after 13 days, 100=total damage, 0=no damage, read-out: Percentage damage caused to weed species, pre-emergence, IPOHE; for pest or weed control at 1000 g/ha: 312 h, 1,000 g/ha
# Procedure, shortened: as §2
# Setaria faberi (SETFA) [9] = assay: as above; details: evaluated after 13 days, 100=total damage, 0=no damage, read-out: Percentage damage caused to weed species, pre-emergence, SETFA; for pest or weed control at 1000 g/ha: 312 h, 1,000 g/ha
# Procedure, shortened: as §2
# [10] = tested on: Alopecurus myosuroides (ALOMY); assay: as above; details: evaluated after 13 days, 100=total damage, 0=no damage, read-out: Percentage damage caused to weed species, pre-emergence, ALOMY; for pest or weed control at 1000 g/ha: 312 h, 1,000 g/ha
# Procedure, shortened: as §2
# [11] = tested on: Amaranthus retroflexus (AMARE); assay: as above; details: evaluated after 13 days, 100=total damage, 0=no damage, read-out: Percentage damage caused to weed species, pre-emergence, AMARE; for pest or weed control at 1000 g/ha: 312 h, 1,000 g/ha
# Procedure, shortened: as §2
# [12] = tested on: Echinochloa crus-galli (ECHCG); assay: as above; details: evaluated after 13 days, 100=total damage, 0=no damage, read-out: Percentage damage caused to weed species, pre-emergence, ECHCG; for pest or weed control at 1000 g/ha: 312 h, 1,000 g/ha
# Procedure, shortened: as §2
SMILES,pest or weed control at 1000 g/ha (Solanum nigrum (SOLNI) [1]) [%],pest or weed control at 1000 g/ha [2] [%],pest or weed control at 1000 g/ha (Setaria faberi (SETFA) [3]) [%],pest or weed control at 1000 g/ha [4] [%],pest or weed control at 1000 g/ha [5] [%],pest or weed control at 1000 g/ha [6] [%],pest or weed control at 1000 g/ha (Solanum nigrum (SOLNI) [7]) [%],pest or weed control at 1000 g/ha [8] [%],pest or weed control at 1000 g/ha (Setaria faberi (SETFA) [9]) [%],pest or weed control at 1000 g/ha [10] [%],pest or weed control at 1000 g/ha [11] [%],pest or weed control at 1000 g/ha [12] [%],other results
"COC(=O)c1nc(Cl)c(F)c(NCc2ncccc2Cl)c1Br [Compound 32-29, 3-Bromo-6-chloro-4-[(3-chloro-pyridin-2-ylmethyl)-amino]-5-fluoro-pyridine-2-carboxylic acid methyl ester]",,,,,,,,,,,,,"pest or weed control at 250 g/ha (Solanum nigrum (SOLNI) [1]; 312 h, 250 g/ha): 80%; pest or weed control at 250 g/ha ([2]; 312 h, 250 g/ha): 60%; pest or weed control at 250 g/ha (Setaria faberi (SETFA) [3]; 312 h, 250 g/ha): 60%; pest or weed control at 250 g/ha ([4]; 312 h, 250 g/ha): 20%; pest or weed control at 250 g/ha ([5]; 312 h, 250 g/ha): 70%; pest or weed control at 250 g/ha ([6]; 312 h, 250 g/ha): 50%; pest or weed control at 250 g/ha (Solanum nigrum (SOLNI) [7]; 312 h, 250 g/ha): 80%; pest or weed control at 250 g/ha ([8]; 312 h, 250 g/ha): 70%; pest or weed control at 250 g/ha (Setaria faberi (SETFA) [9]; 312 h, 250 g/ha): 0%; pest or weed control at 250 g/ha ([10]; 312 h, 250 g/ha): 10%; pest or weed control at 250 g/ha ([11]; 312 h, 250 g/ha): 90%; pest or weed control at 250 g/ha ([12]; 312 h, 250 g/ha): 10%"
"C=Cc1c(C(=O)OC)nc(Cl)c(Cl)c1NCc1ncccc1Cl [Compound 32-39, 4-[(3-Chloro-pyridin-2-ylmethyl)-amino]-5,6-dichloro-3-ethenyl-pyridine-2-carboxylic acid methyl ester]",90,40,50,10,100,20,60,50,0,0,100,0,
"COC(=O)c1nc(Cl)c(Cl)c(NCc2ncccc2Cl)c1Br [Compound 32-41, 3-Bromo-4-[(3-chloro-pyridin-2-ylmethyl)-amino]-5,6-dichloro-pyridine-2-carboxylic acid methyl ester]",90,70,60,20,90,20,80,80,0,0,90,0,
"COC(=O)c1nc(Cl)cc(NCc2ncccc2C)c1Cl [Compound 33-2, 3,6-Dichloro-4-[(3-methyl-pyridin-2-ylmethyl)-amino] pyridine-2-carboxylic acid methyl ester]",100,80,70,60,100,60,100,100,80,60,100,50,
"C=Cc1c(NCc2ncccc2C)cc(Cl)nc1C(=O)OC [Compound 33-12, 6-Chloro-3-ethenyl-4-[(3-methyl-pyridin-2-ylmethyl)-amino]-pyridine-2-carboxylic acid methyl ester]",90,70,90,80,100,80,100,100,80,70,100,80,
"COC(=O)c1nc(Cl)cc(N(CCO)Cc2ccco2)c1Cl [Compound 66-2, 3,6-Dichloro-4-[N-(furan-2-ylmethyl)-N-(2-hydroxyethyl)-amino]-pyridine-2-carboxylic acid methyl ester]",80,60,0,20,100,20,100,100,70,80,100,50,
"COC(=O)c1nc(Cl)cc(NCC2CCCCC2)c1Cl [Compound 67-2, 4- Cyclohexylmethyl amino-3,6-dichloro-pyridine-2-carboxylic acid methyl ester]",100,70,20,30,100,20,90,80,60,20,100,10,
"C=Cc1c(NCC2CCCCC2)cc(Cl)nc1C(=O)OC [Compound 67-12, 6-Chloro-4-cyclohexylmeth-ylamino-3-ethenyl-pyridine-2-carboxylic acid methyl ester]",80,60,20,10,90,20,80,60,0,10,100,10,
"COC(=O)c1nc(Cl)cc(NC[C@@H]2CCCC[C@H]2O)c1Cl [Compound 68-2, 3,6-Dichloro-pyridine-4-[trans-(2-hydroxycyclohexyl-methyl)-amino]-2-carboxylic acid methyl ester]",100,70,70,40,100,20,100,90,80,70,100,0,

# Reference: US20120100990A1, “4 -AMINOPICOLINATES AND THEIR USE AS HERBICIDES” (SYNGENTA CROP PROTECTION LLC, priority 2009, published 2012)
